From patent US4472305A, “Hexapeptide amides” (Sterling Drug Inc., priority 1983, dated 1984)
“And” between values parts separate entries of the source, which are not always exact repeats. Equal entries are not always repeated. Non-standard residues stand in square brackets, D forms with d. Residues, ends and D or L forms follow the SMILES beside them. NMeF = CN[C@@H](Cc1ccccc1)C(=O)O; hPhe = N[C@@H](CCc1ccccc1)C(=O)O; NMeL = CN[C@@H](CC(C)C)C(=O)O; NMeM = CN[C@@H](CCSC)C(=O)O; Nle = CCCC[C@H](N)C(=O)O

How the values were obtained:
[1] = system: longitudinal muscle of guinea pig terminal ileum; assay: Guinea pig ileum test (SP agonist and antagonist effect); type: cell-based; details: for Guinea Pig Ileum pA2: antagonism of reference agonist, Schild plot analysis; for Guinea Pig Ileum % Agonism (potency relative to SP): contraction of ileum longitudinal muscle strips, relative molar potency vs SP
Experimental: Strips of longitudinal muscle derived from terminal ileum of adult male guinea pigs (Charles River, 400-600 g.) are mounted in 5-ml. organ baths containing oxygenated Krebs solution containing 1 μM each of atropine and pyrilamine maintained at 30-33 C. and connected to isometric transducers. Following tissue equilibration and repeated washing (45-60 min.), SP or an appropriate reference agonist is added cumulatively to the bath and contractions of the tissue are recorded. The bath is washed thoroughly and 30-45 min. is allowed to elapse before construction of a second reference agonist curve to assure reproducibility of the responses. Test compounds are similarly evaluated for agonist activity up to a maximum concentration of 10-100 μM. […] When appropriate, relative molar potency ratios are calculated (EC50 reference/ED50 test drug). […] The effects of several concentrations of test antagonist, pooled across separate experiments, provide dose-ratio (EC50 shift) data for a standard Schild plot analysis, with computation of the pA2.

SP receptor [2] = target: T1, SP receptor (Rattus norvegicus, UniProt P14600); assay: 3H-SP binding test, rat submaxillary gland tissue; details: for IC50: 3H-SP Binding IC50(μM), rat submaxillary gland tissue (Examples 1-34); for inhibition at 30 µM: read-out: 3H-SP Binding % Inhibition
T1 construct: from tissue; host or cells: rat submaxillary gland (crude tissue suspension)
Experimental: (§1) Crude rat submaxillary gland or brain tissue is suspended in buffer containing protease inhibitors (and calcium ions and magnesium ions in the case of brain tissue) and incubated under nitrogen atmosphere with ^3 H-SP and test compound. The bound SP is then separated from free SP by filtration and quantitated by liquid scintillation spectroscopy. This test meets the criteria of reversibility, saturability, sensitivity to known SP agonists and antagonists, and specificity for an SP receptor binding assay.
(§2) With regard to reversibility, addition of unlabelled SP causes a gradual decrease in bound ^3 H-SP, showing that SP is not irreversibly bound to the receptors in the tissue. With regard to saturability, the amount of bound ^3 H-SP in the preparation increases in direct proportion to the concentration of ^3 H-SP added until a saturation point is reached. […] With regard to sensitivity, known SP agonists and antagonists inhibit ^3 H-SP binding.
(§3) The results are expressed either as percent inhibition at a concentration of 30 micromoles per liter (μM) or as an IC50 calculated as the concentration in micromoles per liter.
(§4) The ^3 H-SP binding test results were obtained using rat submaxillary gland tissue for Examples 1-34 and rat brain tissue for Examples 35-42.

rat vas deferens = assay: Rat vas deferens test (SP antagonist effect); type: cell-based; details: reversal of potentiation by 10 μM SP of electrically induced contractions
Experimental: Rat vasa deferentia are suspended in organ baths containing warmed, oxygenated Krebs solution and repetitively field-stimulated (0.1 Hz., 1 msec. duration, monophasic pulses) through platinum wire ring electrodes. Rapid, regular contractions of the muscle are recorded via transducers on a Grass polygraph. SP and related tachykinins added to the bath evoke a dose-dependent, stable potentiation of these electrically-induced contractions. For routine screening, a 10 μM concentration of SP is applied to all tissues to produce a 2-6 fold increase in electrically-stimulated twitch height. SP antagonist compounds (1-30 μM) produce an immediate, dose-related reversal of the response of the tissue to SP, which is quantified by determination of an IC50.

SP receptor [3] = target: T1, SP receptor; assay: 3H-SP binding test, rat brain tissue; details: rat brain tissue (Examples 35-42); for inhibition at 30 µM: 30 μM test compound
Experimental: as §1, §2, §3, §4

T1 sequence (P14600 whole entry): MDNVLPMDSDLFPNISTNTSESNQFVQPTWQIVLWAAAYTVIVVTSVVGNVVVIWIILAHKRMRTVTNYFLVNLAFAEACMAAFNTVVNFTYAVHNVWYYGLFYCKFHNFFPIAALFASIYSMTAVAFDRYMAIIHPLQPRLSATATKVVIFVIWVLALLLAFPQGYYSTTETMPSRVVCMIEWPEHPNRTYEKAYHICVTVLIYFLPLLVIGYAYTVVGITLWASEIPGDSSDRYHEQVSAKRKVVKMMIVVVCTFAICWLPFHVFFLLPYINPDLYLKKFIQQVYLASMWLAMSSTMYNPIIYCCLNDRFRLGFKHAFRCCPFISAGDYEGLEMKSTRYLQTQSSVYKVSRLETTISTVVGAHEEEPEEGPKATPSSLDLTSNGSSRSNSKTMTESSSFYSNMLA

inhibition at 30 µM (SP receptor [3]) [%] | Structure (SMILES) | Guinea Pig Ileum pA2 [1] | Guinea Pig Ileum % Agonism (potency relative to SP) [1] [%] | IC50 (SP receptor [2]) | IC50 (rat vas deferens) [µM] | inhibition at 30 µM (SP receptor [2]) [%] | IC50 (SP receptor [3]) [µM]
– | CSCC[C@H](NC(=O)[C@H](CC(C)C)NC(=O)[C@@H](Cc1c[nH]c2ccccc12)NC(=O)[C@H](Cc1ccccc1)NC(=O)[C@@H](Cc1c[nH]c2ccccc12)NC(=O)[C@@H]1CCCN1)C(N)=O [Example 17, HPro-DTrp-Phe-DTrp-Leu-MetNH2] (H-P[dW]F[dW]LM-NH2) | 5.7 | < 0.01 | 9.7 µM and 16.1 µM | 4.1 | – | –
– | CSCC[C@H](NC(=O)[C@H](CC(C)C)NC(=O)[C@@H](Cc1ccccc1)NC(=O)[C@H](CCc1ccccc1)NC(=O)[C@@H](Cc1ccccc1)NC(=O)[C@@H]1CCCN1)C(N)=O [Example 29, HPro-DPhe-Hfe-DPhe-Leu-MetNH2] (H-P[dF][hPhe][dF]LM-NH2) | – | – | – | > 40 | 64 | –
– | CSCC[C@H](NC(=O)[C@H](CC(C)C)NC(=O)[C@@H](Cc1ccccc1)NC(=O)[C@H](Cc1ccccc1)NC(=O)[C@@H](Cc1ccccc1)NC(=O)[C@@H]1CCCN1)C(N)=O [Example 23, HPro-DPhe-Phe-DPhe-Leu-MetNH2] (H-P[dF]F[dF]LM-NH2) | 5.4 | < 0.001 | – | 20 | 53 | –
– | CCCC[C@H](NC(=O)[C@H](CC(C)C)NC(=O)[C@@H](Cc1ccccc1)NC(=O)[C@H](Cc1ccccc1)NC(=O)[C@@H](Cc1ccccc1)NC(=O)[C@@H]1CCCN1)C(N)=O [Example 31, HPro-DPhe-Phe-DPhe-Leu-NleNH2] (H-P[dF]F[dF]L[Nle]-NH2) | – | – | – | 30 | 47 | –
68 | CSCC[C@H](NC(=O)[C@H](CC(C)C)NC(=O)[C@@H](Cc1c[nH]c2ccccc12)NC(=O)[C@H](Cc1ccccc1)N(C)C(=O)[C@@H](Cc1c[nH]c2ccccc12)NC(=O)[C@@H]1CCCN1)C(N)=O [Example 38, HPro-DTrp-MePhe-DTrp-Leu-MetNH2] (H-P[dW][NMeF][dW]LM-NH2) | – | – | – | – | – | –
– | CSCC[C@H](NC(=O)[C@H](CC(C)C)NC(=O)[C@@H](Cc1c[nH]c2ccccc12)NC(=O)[C@H](Cc1ccccc1)NC(=O)[C@@H](Cc1ccccc1)NC(=O)[C@@H]1CCCN1)C(N)=O [Example 12, HPro-DPhe-Phe-DTrp-Leu-MetNH2] (H-P[dF]F[dW]LM-NH2) | 5.6 | 0.0001 | 26.8 µM | 13 | 69 | –
9 | CSCC[C@H](NC(=O)[C@H](CC(C)C)NC(=O)CNC(=O)[C@H](Cc1ccccc1)NC(=O)[C@H](Cc1ccccc1)N(C)C(=O)[C@@H]1CCCN1)C(N)=O [Example 40, HPro-MePhe-Phe-Gly-Leu-MetNH2] (H-P[NMeF]FGLM-NH2) | – | – | – | – | – | –
46 | CSCC[C@H](NC(=O)[C@H](CC(C)C)NC(=O)[C@@H](Cc1c[nH]c2ccccc12)NC(=O)CNC(=O)[C@@H](Cc1c[nH]c2ccccc12)NC(=O)[C@@H]1CCCN1)C(N)=O [Example 39, HPro-DTrp-Gly-DTrp-Leu-MetNH2] (H-P[dW]G[dW]LM-NH2) | – | – | – | – | – | –

Structure (SMILES) | inhibition at 30 µM (SP receptor [3]) [%] | Guinea Pig Ileum pA2 [1] | Guinea Pig Ileum % Agonism (potency relative to SP) [1] [%] | IC50 (SP receptor [2]) | IC50 (rat vas deferens) [µM] | inhibition at 30 µM (SP receptor [2]) [%] | IC50 (SP receptor [3]) [µM]
CSCC[C@@H](C(N)=O)N(C)C(=O)[C@H](CC(C)C)NC(=O)[C@@H](Cc1c[nH]c2ccccc12)NC(=O)[C@H](Cc1ccccc1)NC(=O)[C@@H](Cc1c[nH]c2ccccc12)NC(=O)[C@@H]1CCCN1 [Example 36, HPro-DTrp-Phe-DTrp-Leu-MeMetNH2] (H-P[dW]F[dW]L[NMeM]-NH2) | 82 | 6.3 | – | – | – | – | 11.5
CSCC[C@H](NC(=O)[C@H](CC(C)C)N(C)C(=O)[C@@H](Cc1c[nH]c2ccccc12)NC(=O)[C@H](Cc1ccccc1)NC(=O)[C@@H](Cc1c[nH]c2ccccc12)NC(=O)[C@@H]1CCCN1)C(N)=O [Example 35, HPro-DTrp-Phe-DTrp-MeLeu-MetNH2] (H-P[dW]F[dW][NMeL]M-NH2) | 46 | 6.3 | – | – | – | – | 43.6
